Several values for one entry are separate records, joined by “and”; a condition that tells them apart may be missing. Equal entries are not always repeated.
How the values were obtained:
[1] = system: β1-AR mutants of residues that interact with Gs; experiment: cAMP assay, dose-response, summary over mutants of Gs-interacting residues; assay type: cell-based, turkey; details: range over mutants, Fig. 5c,d
turkey β1-AR V326^7.36A = turkey β1-AR V326^7.36A (Meleagris gallopavo, UniProt P07700, V326A); experiment: cell-based
turkey β1-AR V326^7.36A, sequence (P07700 whole entry V326A): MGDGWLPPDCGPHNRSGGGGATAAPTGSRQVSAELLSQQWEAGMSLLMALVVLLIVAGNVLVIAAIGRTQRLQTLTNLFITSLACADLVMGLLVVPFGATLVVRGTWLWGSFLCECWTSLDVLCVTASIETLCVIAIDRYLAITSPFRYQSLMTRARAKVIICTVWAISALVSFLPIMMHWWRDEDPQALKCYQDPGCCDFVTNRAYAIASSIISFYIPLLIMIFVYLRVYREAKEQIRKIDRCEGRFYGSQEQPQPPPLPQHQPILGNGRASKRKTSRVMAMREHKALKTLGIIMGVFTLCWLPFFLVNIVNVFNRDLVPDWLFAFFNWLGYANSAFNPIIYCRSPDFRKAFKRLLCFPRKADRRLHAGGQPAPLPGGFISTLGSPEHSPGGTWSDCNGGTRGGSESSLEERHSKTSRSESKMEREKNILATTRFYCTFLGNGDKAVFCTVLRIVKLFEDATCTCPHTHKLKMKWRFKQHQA
Procedure: (§1) CHO cells (transfected with a control empty vector or wild-type or mutant turkey β1-AR) were plated onto six-well plates, and were pre-incubated with culture medium buffered with 0.5 mM IBMX for 30 min at 37 °C[20]. […] After culture medium removal, cells were treated with 0.1 M HCl for 10 minutes at room temperature. After centrifugation, the supernatant was used for cAMP quantification using the Direct Cyclic AMP Enzyme Immunoassay kit (Enzo Life Sciences). […] The cAMP assays were repeated three times, and the data are represented as mean ± SD of the three independent experiments. The analysis was done using the log(agonist) vs. response function of Prism 8 (GraphPad)[20].

turkey β1-AR T203^ECL2A = turkey β1-AR T203^ECL2A (Meleagris gallopavo, UniProt P07700, T203A); experiment: cell-based
turkey β1-AR T203^ECL2A, sequence (P07700 whole entry T203A): as the sequence (P07700 whole entry V326A) above, with T203A, A326V counted along it
Procedure: as §1

turkey β1-AR W330^7.40A = turkey β1-AR W330^7.40A (Meleagris gallopavo, UniProt P07700, W330A); experiment: cell-based; details: for cAMP level: Fig 3 source data, W330A
turkey β1-AR W330^7.40A, sequence (P07700 whole entry W330A): as the sequence (P07700 whole entry V326A) above, with A326V, W330A counted along it
Procedure: as §1

[2] = CHO, 5 min, read-out: Efficacy (% of max cAMP level)

CC(CCc1ccc(O)cc1)NCCc1ccc(O)c(O)c1 (stereo not drawn) [Dobutamine, dobutamine] was tested, and the “change of EC50 by β1-AR mutations” value [1] was 2 to 7 fold, the “reduction of the cAMP response by β1-AR mutations” value [1] was 17–44% and the EC50 (turkey β1-AR V326^7.36A) was 7590 nM. It also gave an Emax (turkey β1-AR V326^7.36A; [2]) of 38 ± 1.2%, an EC50 (turkey β1-AR T203^ECL2A) of 1580 nM and an Emax (turkey β1-AR T203^ECL2A; [2]) of 99 ± 0.7%. For the same compound, the EC50 (turkey β1-AR W330^7.40A) was 2950 nM, the Emax (turkey β1-AR W330^7.40A; [2]) was 85 ± 0.8% and the cAMP level (turkey β1-AR W330^7.40A; log[ligand] (M) -3) was 346 and 351 and 347. The cAMP level (turkey β1-AR W330^7.40A; log[ligand] (M) -4) was 342 and 348 and 346, the cAMP level (turkey β1-AR W330^7.40A; log[ligand] (M) -5) was 266 and 272 and 271 and the cAMP level (turkey β1-AR W330^7.40A; log[ligand] (M) -6) was 127 and 136 and 131. For the same compound, the cAMP level (turkey β1-AR W330^7.40A; log[ligand] (M) -7) was 58 and 65 and 63, the cAMP level (turkey β1-AR W330^7.40A; log[ligand] (M) -8) was 43 and 48 and the cAMP level (turkey β1-AR W330^7.40A; log[ligand] (M) -9) was 38 and 45 and 43.

From publication PMC9283524 (Nature Communications, 2022)
